Laboratory results: patent US7442393B2, “Herbal extracts of Salicornia species, process of preparation thereof, use thereof against tuberculosis” (priority 2003, dated 2008)

Test system: M. tuberculosis H37Rv
Assay: In vivo screening of antitubercular activity in infected mice model of experimental tuberculosis
Design: species or system Female swiss mice
Conditions: 25 mg/kg body weight for 10 days after infection

**Q.** Which results are given for `C[C@@H]1CN(c2c(F)c(N)c3c(=O)c(C(=O)O)cn(C4CC4)c3c2F)C[C@H](C)N1` [sparfloxicin]?
**A.** general health and body weight of infected mice: healthy, gained weight; mortality of infected mice: none of the mice died
